Source: patent US8101171B2, “Modulators of the development of mychorrizal fungi with arbuscules, and uses thereof” (priority 2004, dated 2012)
Marks after values point to notes of the source that are not given here.

Tests used:
Gigaspora rosea = experiment: Oxygraph measurement of cell respiration of Gigaspora rosea; format: cell-based; conditions: for % stimulation (respiration, average of 3 tests): GR7 0.1 μM final
Method: The control is carried out using 10 μl of methanol/water (v/v) per ml of medium.
Two independent series of experiments were carried out, after 4 hours' stimulation (series 1) and after 5½ hours' stimulation (series 2).
For each, the values recorded correspond to the averages of 3 tests.

Gigaspora rosea spores [1] = experiment: Stimulation of hypha branching and elongation of Gigaspora rosea by GR7; format: cell-based
Method: Gigaspora rosea spores are germinated in gelosed medium M for 5 days at 30° C. and in an atmosphere enriched with 2% CO2. 10 μl of test agent solution are then added to the medium by introduction into a well hollowed out in the gelose, starting from a solution having a concentration of test agent varying from 10^−5 to 10^−11 M. The controls receive only the solvent for the test agents (10 μl of 50% methanol) under the same conditions.
The apexes formed are counted after 48 hours' treatment. In addition, the elongation activity is evaluated by measuring the number of cm formed before and after treatment. Two series of experiments, with different concentrations of GR7, were carried out.

[2] = test system: Medicago truncatula / Gigaspora rosea; experiment: In vitro mycorrhization of Medicago truncatula by Gigaspora rosea (points of contact between fungus and roots); format: in vivo; conditions: GR7 0.1 μM in medium M, 3 weeks, 8 plants; control (methanol) 2.2; P = 0.02 Mann-Whitney
Method: Measurements of the number of points of contact established between the fungus and the roots during in vitro mycorrhization experiments were carried out. Medicago truncatula plants were cultivated in vitro in the presence of Gigaspora rosea spores, on medium M enriched with GR7.
For the tests, medium M prepared as above is enriched with GR7 to give a final concentration of 0.1 μM. The controls are carried out with medium M to which methanol is added to give a final concentration of 0.1%. The medium is poured into square Petri dishes (100×100). Three control dishes and three test dishes are prepared. The Gigaspora rosea spores are pre-germinated in those dishes (25 per dish) in an oven at 30° C., with 2% CO2, for 6 days. The Medicago truncatula seeds are sterilized with Javel water at 8 degrees chlorimetric for 5 minutes. After rinsing with sterile distilled water, they are germinated on a medium composed of bacteriological agar with 1 μM gibberellin. After 24 hours at 4° C., they are transferred into a chamber at 25° C. for 24 hours. Eighteen plantlets so prepared are then distributed randomly in the six experimental dishes containing the spores in the process of germinating. […]
The number of points of contact established between the fungus and the roots is counted plant by plant after observation under a microscope.

[3] = test system: Glomus intraradices spores; experiment: Polarographic measurement of oxygen consumption (cell respiration) of germinating Glomus intraradices spores; format: cell-based; conditions: GR24 0.3 μM final
Method: Polarographic measurements of oxygen consumption were carried out on Glomus intraradices spores in germination, in the presence or absence of GR24.
400 spores in 1 ml of medium M are used per test.
In order to stimulate the spores, there are added to each test 10 μl of a 30 μM solution of GR24 in acetone (1%), namely a final concentration of GR24 of 0.3 μM. The controls receive 10 μl of acetone (1%).
The oxygen consumption is measured using an oxygen electrode, known as a Clark electrode (Hansatech Ltd, Hardwick Industrial, Norfolk, United Kingdom), inserted into a Plexiglass chamber. The oxygen electrode is connected to a recorder calibrated between 0 and 100% with atmospheric oxygen.
The spores are introduced into the chamber, and the temperature is maintained at 30° C. by means of a circulating water bath. The rates of oxygen consumption are read directly from the recorder. The measurements of oxygen consumption are carried out over 15 minutes, after 4 hours' stimulation (series 1) and after 5½ hours' stimulation (series 2).
Two independent series of experiments were carried out. For each, the recorded values correspond to the average of 3 tests.
The increase in oxygen consumption is expressed as a percentage relative to that of the control, treated with acetone.

Gigaspora rosea spores [4] = experiment: Stimulation of the branching of the hyphae of Gigaspora rosea by GR24 (newly formed apexes); format: cell-based
Excerpt: The stimulated branching of the hyphae (appearance of new apexes) is the test currently employed to evaluate the stimulating activity of various effectors on endomycorrhizal fungi of the genus Gigaspora. This phenomenon occurs naturally close to the roots of host plants, as well as under the action of root exudates, and is considered to be a preparatory phase to the establishment of symbiosis (Buée et al., Molecular Plant-Microbe Interaction, 2000, 13:693-698). This increase in branching is the result of stimulation of the fungus metabolism and leads to an increase in the points of contact between the fungus and the roots of the plant. Any increase in the branching of the hyphae of the fungus increases mycorrhization.
Measurements of branching (expressed as the number of apexes appearing after stimulation) of the germinative tubes of Gigaspora rosea were carried out in the presence of various concentrations of GR24.
To that end, Gigaspora rosea spores are germinated in gelosed medium M (medium M containing 0.4% (w/v) Phytagel®—SIGMA, France) for 5 days at 30° C. and in an atmosphere enriched with 2% CO2. 10 μl of test agents (in concentrations varying from 10^−8 to 10^−15 M) in solution in 50% methanol are then added to the medium by introduction into a well hollowed out in the gelose.
The controls receive the solvent for the test molecules (10 μl of 50% methanol) under the same conditions.
48 hours after treatment, the apexes formed above the stimulation zone are counted. Two series of experiments with GR24, at different concentrations, were carried out.

[5] = Series 1: after 4 hours' stimulation
[6] = Series 2: after 5½ hours' stimulation
[7] = GR7 10^−5 M, Series 1, relative to control
[8] = GR7 10^−5 M, Series 2, relative to control
[9] = GR7 10^−7 M, Series 1, relative to control
[10] = GR7 10^−7 M, Series 2, relative to control
[11] = GR7 10^−9 M, Series 1, relative to control
[12] = GR7 10^−9 M, Series 2, relative to control
[13] = GR7 10^−11 M, Series 1, relative to control
[14] = GR7 10^−11 M, Series 2, relative to control

CC1=CC(O/C=C2/C(=O)OC3CC=CC23)OC1=O (stereo not drawn) [GR7]
% stimulation (respiration, average of 3 tests) (Gigaspora rosea; [5]): 24.0%
% stimulation (respiration, average of 3 tests) (Gigaspora rosea; [6]): 33.6%
Activity on the respiration of Gigaspora rosea (Gigaspora rosea; final concentration 0.1 μM, after 5 hours' stimulation): active
cm newly formed/spore (Gigaspora rosea spores [1]; GR7 10^−5 M, Series 1): 4.88 cm
Number of newly formed apexes (Gigaspora rosea spores [1]; GR7 10^−5 M, Series 1, after 48 hours' treatment): 9.3
Branching stimulation ratio (Gigaspora rosea spores [1]; [7]): 5.31
Growth stimulation ratio (Gigaspora rosea spores [1]; [7]): 4.44
cm newly formed/spore (Gigaspora rosea spores [1]; GR7 10^−5 M, Series 2): 6.5 cm
Number of newly formed apexes (Gigaspora rosea spores [1]; GR7 10^−5 M, Series 2, after 48 hours' treatment): 14.25
Branching stimulation ratio (Gigaspora rosea spores [1]; [8]): 6.59
Growth stimulation ratio (Gigaspora rosea spores [1]; [8]): 2.60
cm newly formed/spore (Gigaspora rosea spores [1]; GR7 10^−7 M, Series 1): 4.65 cm
Number of newly formed apexes (Gigaspora rosea spores [1]; GR7 10^−7 M, Series 1, after 48 hours' treatment): 8.75
Branching stimulation ratio (Gigaspora rosea spores [1]; [9]): 5
Growth stimulation ratio (Gigaspora rosea spores [1]; [9]): 4.23
cm newly formed/spore (Gigaspora rosea spores [1]; GR7 10^−7 M, Series 2): 5.09 cm
Number of newly formed apexes (Gigaspora rosea spores [1]; GR7 10^−7 M, Series 2, after 48 hours' treatment): 10.42
Branching stimulation ratio (Gigaspora rosea spores [1]; [10]): 4.82
Growth stimulation ratio (Gigaspora rosea spores [1]; [10]): 2.04
cm newly formed/spore (Gigaspora rosea spores [1]; GR7 10^−9 M, Series 1): 2.62 cm
Number of newly formed apexes (Gigaspora rosea spores [1]; GR7 10^−9 M, Series 1, after 48 hours' treatment): 8
Branching stimulation ratio (Gigaspora rosea spores [1]; [11]): 4.57
Growth stimulation ratio (Gigaspora rosea spores [1]; [11]): 2.38
cm newly formed/spore (Gigaspora rosea spores [1]; GR7 10^−9 M, Series 2): 4.99 cm
Number of newly formed apexes (Gigaspora rosea spores [1]; GR7 10^−9 M, Series 2, after 48 hours' treatment): 6.16
Branching stimulation ratio (Gigaspora rosea spores [1]; [12]): 2.85
Growth stimulation ratio (Gigaspora rosea spores [1]; [12]): 2.00
cm newly formed/spore (Gigaspora rosea spores [1]; GR7 10^−11 M, Series 1): 2.65 cm
Number of newly formed apexes (Gigaspora rosea spores [1]; GR7 10^−11 M, Series 1, after 48 hours' treatment): 5.16
Branching stimulation ratio (Gigaspora rosea spores [1]; [13]): 2.94
Growth stimulation ratio (Gigaspora rosea spores [1]; [13]): 2.41
cm newly formed/spore (Gigaspora rosea spores [1]; GR7 10^−11 M, Series 2): 2.23 cm
Number of newly formed apexes (Gigaspora rosea spores [1]; GR7 10^−11 M, Series 2, after 48 hours' treatment): 2.66
Branching stimulation ratio (Gigaspora rosea spores [1]; [14]): 1.23
Growth stimulation ratio (Gigaspora rosea spores [1]; [14]): 0.89
Activity on branching (number of newly formed apexes) (Gigaspora rosea spores [1]; doses of the nanomolar order): significantly active
Activity on cell elongation (Gigaspora rosea spores [1]; doses of the nanomolar order): significantly active
Average points of contact (fungus-roots, per plant) [2]: 7.75*

CC1=CC(O/C=C2/C(=O)OC3c4ccccc4CC23)OC1=O (stereo not drawn) [GR24]
% stimulation (increase in oxygen consumption relative to control, average of 3 tests) [3, 5]: 29.0%
% stimulation (increase in oxygen consumption relative to control, average of 3 tests) [3, 6]: 76.6%
Apex/spore (Gigaspora rosea spores [4]; GR24 10^−8 M, Series 1, 48 hours after treatment): 16.3
Number of newly formed apexes (Gigaspora rosea spores [4]; GR24 10^−8 M, Series 1, 48 hours after treatment, 4 spores): 65
Stimulation factor (Gigaspora rosea spores [4]; GR24 10^−8 M, Series 1, relative to control): 5.4
Apex/spore (Gigaspora rosea spores [4]; GR24 10^−8 M, Series 2, 48 hours after treatment): 14.0
Number of newly formed apexes (Gigaspora rosea spores [4]; GR24 10^−8 M, Series 2, 48 hours after treatment, 1 spore): 14
Stimulation factor (Gigaspora rosea spores [4]; GR24 10^−8 M, Series 2, relative to control): 4.0
Apex/spore (Gigaspora rosea spores [4]; GR24 10^−10 M, Series 1, 48 hours after treatment): 15.0
Number of newly formed apexes (Gigaspora rosea spores [4]; GR24 10^−10 M, Series 1, 48 hours after treatment, 3 spores): 45
Stimulation factor (Gigaspora rosea spores [4]; GR24 10^−10 M, Series 1, relative to control): 5.0
Apex/spore (Gigaspora rosea spores [4]; GR24 10^−10 M, Series 2, 48 hours after treatment): 13.3
Number of newly formed apexes (Gigaspora rosea spores [4]; GR24 10^−10 M, Series 2, 48 hours after treatment, 3 spores): 40
Stimulation factor (Gigaspora rosea spores [4]; GR24 10^−10 M, Series 2, relative to control): 3.8
Apex/spore (Gigaspora rosea spores [4]; GR24 10^−12 M, Series 1, 48 hours after treatment): 9.0
Number of newly formed apexes (Gigaspora rosea spores [4]; GR24 10^−12 M, Series 1, 48 hours after treatment, 4 spores): 36
Stimulation factor (Gigaspora rosea spores [4]; GR24 10^−12 M, Series 1, relative to control): 3.0
Apex/spore (Gigaspora rosea spores [4]; GR24 10^−12 M, Series 2, 48 hours after treatment): 8.5
Number of newly formed apexes (Gigaspora rosea spores [4]; GR24 10^−12 M, Series 2, 48 hours after treatment, 4 spores): 34
Stimulation factor (Gigaspora rosea spores [4]; GR24 10^−12 M, Series 2, relative to control): 2.4
Apex/spore (Gigaspora rosea spores [4]; GR24 10^−15 M, Series 1, 48 hours after treatment): 3.8
Number of newly formed apexes (Gigaspora rosea spores [4]; GR24 10^−15 M, Series 1, 48 hours after treatment, 4 spores): 15
Stimulation factor (Gigaspora rosea spores [4]; GR24 10^−15 M, Series 1, relative to control): 1.3
Apex/spore (Gigaspora rosea spores [4]; GR24 10^−15 M, Series 2, 48 hours after treatment): 8.5
Number of newly formed apexes (Gigaspora rosea spores [4]; GR24 10^−15 M, Series 2, 48 hours after treatment, 2 spores): 17
Stimulation factor (Gigaspora rosea spores [4]; GR24 10^−15 M, Series 2, relative to control): 2.4
Stimulating effect on branching (Gigaspora rosea spores [4]; doses lower than picomolar): a clear stimulating effect is still observed
Stimulation of branching (factor) (Gigaspora rosea spores [4]; submicromolar doses of GR24): 5
